Laboratory results reported in ChEMBL document CHEMBL4715821, “Discovery of 4-ethoxy-7H-pyrrolo[2,3-d]pyrimidin-2-amines as potent, selective and orally bioavailable LRRK2 inhibitors” (Bioorg Med Chem Lett, 2018).

Columns and labels:
[1] = target: Fibroblast growth factor receptor 1 (Homo sapiens) (UniProt P11362); experiment: Inhibition of wild-type human partial length FGFR1 (P357 to V669 residues) expressed in bacterial expression system assessed as residual activity at 1 uM by Kinomescan method relative to control
[2] = target: Misshapen-like kinase 1 (Homo sapiens) (UniProt Q8N4C8); experiment: Inhibition of wild-type human partial length MINK (M1 to K312 residues) expressed in mammalian expression system assessed as residual activity at 1 uM by Kinomescan method relative to control
[3] = target: Protein kinase C eta type (Homo sapiens) (UniProt P24723); experiment: Inhibition of PKCeta (unknown origin) assessed as residual activity at 1 uM by Kinomescan method relative to control
[4] = target: Ribosomal protein S6 kinase alpha-2 (Homo sapiens) (UniProt Q15349); experiment: Inhibition of human RSK3 expressed in bacterial expression system assessed as residual activity at 1 uM by Kinomescan method relative to control
[5] = target: Mitogen-activated protein kinase 12 (Homo sapiens) (UniProt P53778); experiment: Inhibition of wild-type human full length p38-gamma (M1 to L367 residues) expressed in mammalian expression system assessed as residual activity at 1 uM by Kinomescan method relative to control
[6] = target: cAMP-dependent protein kinase catalytic subunit PRKX (Homo sapiens) (UniProt P51817); experiment: Inhibition of wild-type human partial length PRKX (M1 to F358 residues) expressed in bacterial expression system assessed as residual activity at 1 uM by Kinomescan method relative to control
[7] = target: Tyrosine-protein kinase JAK3 (Homo sapiens) (UniProt P52333); experiment: Inhibition of wild type human partial length JAK3 (I781 to S1124 residues) expressed in mammalian expression system assessed as residual activity at 1 uM by Kinomescan method relative to control
[8] = target: MAP kinase-activated protein kinase 5 (Homo sapiens) (UniProt Q8IW41); experiment: Inhibition of wild-type human partial length MAPKAPK5 (M1 to D322 residues) expressed in mammalian expression system assessed as residual activity at 1 uM by Kinomescan method relative to control
[9] = target: Casein kinase I isoform alpha-like (Homo sapiens) (UniProt Q8N752); experiment: Inhibition of CK1a1L (unknown origin) assessed as residual activity at 1 uM by Kinomescan method relative to control
[10] = target: Tyrosine-protein kinase ABL2 (Homo sapiens) (UniProt P42684); experiment: Inhibition of wild-type human ABL2 (A248 to G542 residues) expressed in bacterial expression system assessed as residual activity at 1 uM by Kinomescan method relative to control
[11] = target: Ephrin type-A receptor 7 (Homo sapiens) (UniProt Q15375); experiment: Inhibition of wild-type human partial length EPHA7 (Y608 to S912 residues) expressed in bacterial expression system assessed as residual activity at 1 uM by Kinomescan method relative to control
[12] = target: Serine/threonine-protein kinase WNK3 (Homo sapiens) (UniProt Q9BYP7); experiment: Inhibition of wild-type human partial length WNK3 (M1 to D434 residues) expressed in mammalian expression system assessed as residual activity at 1 uM by Kinomescan method relative to control
[13] = target: Ribosomal protein S6 kinase alpha-3 (Homo sapiens) (UniProt P51812); experiment: Inhibition of wild-type human partial length N-terminal RSK2 kinase domain 1 (M1 to D394 residues) expressed in mammalian expression system assessed as residual activity at 1 uM by Kinomescan method relative to control
[14] = Dose normalized AUC (0 to t) in Han-Wistar rat blood at 10 mg/kg, po measured up to 7 hrs by UPLC-MS/MS analysis; type: ADME, organism-based; details: in vivo
[15] = target: Interleukin-1 receptor-associated kinase 1 (Homo sapiens) (UniProt P51617); experiment: Inhibition of wild-type human partial length IRAK1 (R194 to S712 residues) expressed in mammalian expression system assessed as residual activity at 1 uM by Kinomescan method relative to control
[16] = target: Serine/threonine-protein kinase PLK1 (Homo sapiens) (UniProt P53350); experiment: Inhibition of wild-type human partial length PLK1 (A33 to F325 residues) expressed in mammalian expression system assessed as residual activity at 1 uM by Kinomescan method relative to control
[17] = target: Ephrin type-B receptor 3 (Homo sapiens) (UniProt P54753); experiment: Inhibition of wild-type human partial length EPHB3 (Q599 to T928 residues) expressed in bacterial expression system assessed as residual activity at 1 uM by Kinomescan method relative to control
[18] = Dose normalized AUC (0 to t) in Han-Wistar rat brain at 10 mg/kg, po measured up to 7 hrs by UPLC-MS/MS analysis; type: ADME, organism-based; details: in vivo
[19] = target: Calcium/calmodulin-dependent protein kinase type 1 (Homo sapiens) (UniProt Q14012); experiment: Inhibition of wild-type human full length CAMK1A (M1 to L370 residues) expressed in bacterial expression system assessed as residual activity at 1 uM by Kinomescan method relative to control
[20] = target: Serine/threonine-protein kinase Nek1 (Homo sapiens) (UniProt Q96PY6); experiment: Inhibition of wild-type human partial length NEK1 (M1 to K278 residues) expressed in bacterial expression system assessed as residual activity at 1 uM by Kinomescan method relative to control
[21] = target: Inhibitor of nuclear factor kappa-B kinase subunit epsilon (Homo sapiens) (UniProt Q14164); experiment: Inhibition of wild-type human full length IKK-epsilon (M1 to V716 residues) expressed in mammalian expression system assessed as residual activity at 1 uM by Kinomescan method relative to control
[22] = target: Mitogen-activated protein kinase 3 (Homo sapiens) (UniProt P27361); experiment: Inhibition of wild-type human full length ERK1 (M1 to P379 residues) expressed in bacterial expression system assessed as residual activity at 1 uM by Kinomescan method relative to control
[23] = target: LIM domain kinase 2 (Homo sapiens) (UniProt P53671); experiment: Inhibition of wild-type human full length LIMK2 (M1 to P638 residues) expressed in bacterial expression system assessed as residual activity at 1 uM by Kinomescan method relative to control
[24] = target: Mitogen-activated protein kinase 9 (Homo sapiens) (UniProt P45984); experiment: Inhibition of wild-type human full length JNK2 (M1 to Q382 residues) expressed in mammalian expression system assessed as residual activity at 1 uM by Kinomescan method relative to control
[25] = target: SRSF protein kinase 2 (Homo sapiens) (UniProt P78362); experiment: Inhibition of wild-type human full length SRPK2 (M1 to S686 residues) expressed in bacterial expression system assessed as residual activity at 1 uM by Kinomescan method relative to control

Interleukin-1 receptor-associated kinase 1 (Homo sapiens), sequence (P51617 whole entry, looked up, the tested form may be a part): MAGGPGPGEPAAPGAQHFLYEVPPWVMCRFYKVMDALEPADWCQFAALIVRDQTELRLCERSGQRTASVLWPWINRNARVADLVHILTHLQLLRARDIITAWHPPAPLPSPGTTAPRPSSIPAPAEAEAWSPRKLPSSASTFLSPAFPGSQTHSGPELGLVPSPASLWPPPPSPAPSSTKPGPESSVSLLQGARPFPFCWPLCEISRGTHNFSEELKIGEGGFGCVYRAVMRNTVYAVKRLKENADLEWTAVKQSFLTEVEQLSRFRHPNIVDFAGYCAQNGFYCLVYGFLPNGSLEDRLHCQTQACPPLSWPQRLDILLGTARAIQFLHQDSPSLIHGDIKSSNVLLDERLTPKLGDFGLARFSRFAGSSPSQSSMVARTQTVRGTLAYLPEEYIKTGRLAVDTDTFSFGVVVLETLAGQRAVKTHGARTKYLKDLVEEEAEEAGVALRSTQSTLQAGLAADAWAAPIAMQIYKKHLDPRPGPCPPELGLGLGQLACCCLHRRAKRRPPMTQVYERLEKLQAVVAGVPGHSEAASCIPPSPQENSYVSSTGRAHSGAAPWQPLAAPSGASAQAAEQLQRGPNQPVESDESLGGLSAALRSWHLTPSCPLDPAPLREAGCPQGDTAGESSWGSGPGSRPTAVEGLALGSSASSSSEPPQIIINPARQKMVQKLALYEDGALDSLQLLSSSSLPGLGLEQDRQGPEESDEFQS
Mitogen-activated protein kinase 3 (Homo sapiens), sequence (P27361 whole entry, the tested form may be a part): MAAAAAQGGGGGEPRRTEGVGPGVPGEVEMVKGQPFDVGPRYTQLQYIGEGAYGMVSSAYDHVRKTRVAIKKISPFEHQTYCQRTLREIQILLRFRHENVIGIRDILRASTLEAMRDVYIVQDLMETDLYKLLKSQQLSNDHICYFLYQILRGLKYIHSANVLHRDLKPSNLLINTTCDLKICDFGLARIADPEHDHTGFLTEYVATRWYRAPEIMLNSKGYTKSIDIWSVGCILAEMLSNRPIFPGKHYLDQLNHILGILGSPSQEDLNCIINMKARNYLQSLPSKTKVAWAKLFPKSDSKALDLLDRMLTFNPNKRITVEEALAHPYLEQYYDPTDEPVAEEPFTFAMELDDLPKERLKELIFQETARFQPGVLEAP
Mitogen-activated protein kinase 12 (Homo sapiens), sequence (P53778 whole entry, the tested form may be a part): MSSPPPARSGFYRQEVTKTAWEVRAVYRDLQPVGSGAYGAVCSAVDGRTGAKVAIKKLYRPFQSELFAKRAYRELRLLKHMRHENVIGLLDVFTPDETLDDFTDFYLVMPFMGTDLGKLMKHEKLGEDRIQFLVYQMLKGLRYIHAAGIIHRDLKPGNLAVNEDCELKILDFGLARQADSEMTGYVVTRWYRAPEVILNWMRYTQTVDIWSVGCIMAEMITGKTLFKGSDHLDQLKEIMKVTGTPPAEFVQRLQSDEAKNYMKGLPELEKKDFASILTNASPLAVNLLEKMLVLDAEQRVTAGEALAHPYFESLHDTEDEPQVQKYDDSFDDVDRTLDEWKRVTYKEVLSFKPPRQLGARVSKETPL
Ephrin type-B receptor 3 (Homo sapiens), sequence (P54753 whole entry, the tested form may be a part): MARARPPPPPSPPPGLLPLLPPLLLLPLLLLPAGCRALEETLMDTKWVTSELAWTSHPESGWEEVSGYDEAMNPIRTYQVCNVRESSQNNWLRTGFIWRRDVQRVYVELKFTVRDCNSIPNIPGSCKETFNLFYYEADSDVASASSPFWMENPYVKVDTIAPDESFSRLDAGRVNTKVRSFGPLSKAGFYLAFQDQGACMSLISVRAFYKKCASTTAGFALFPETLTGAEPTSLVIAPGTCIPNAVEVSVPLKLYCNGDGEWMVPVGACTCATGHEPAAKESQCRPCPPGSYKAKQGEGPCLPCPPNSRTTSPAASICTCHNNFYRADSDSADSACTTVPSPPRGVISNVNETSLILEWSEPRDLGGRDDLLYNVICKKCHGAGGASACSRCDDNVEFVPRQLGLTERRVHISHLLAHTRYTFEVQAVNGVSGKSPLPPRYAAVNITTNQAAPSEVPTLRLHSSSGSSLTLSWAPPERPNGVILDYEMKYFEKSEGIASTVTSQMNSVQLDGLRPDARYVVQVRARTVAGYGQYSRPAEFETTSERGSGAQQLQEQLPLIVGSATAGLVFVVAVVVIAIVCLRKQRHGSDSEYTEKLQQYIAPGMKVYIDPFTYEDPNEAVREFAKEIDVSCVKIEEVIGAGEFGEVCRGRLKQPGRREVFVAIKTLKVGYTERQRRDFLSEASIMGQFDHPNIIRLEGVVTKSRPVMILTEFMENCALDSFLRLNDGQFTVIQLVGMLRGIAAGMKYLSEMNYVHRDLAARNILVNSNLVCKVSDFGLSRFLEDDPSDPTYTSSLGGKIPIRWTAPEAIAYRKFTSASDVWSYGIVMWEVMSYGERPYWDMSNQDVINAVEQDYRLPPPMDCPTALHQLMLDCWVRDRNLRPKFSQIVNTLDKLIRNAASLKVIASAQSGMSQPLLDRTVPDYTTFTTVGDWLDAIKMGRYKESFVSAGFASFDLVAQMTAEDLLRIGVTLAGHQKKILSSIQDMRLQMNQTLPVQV
Mitogen-activated protein kinase 9 (Homo sapiens), sequence (P45984 whole entry, looked up, the tested form may be a part): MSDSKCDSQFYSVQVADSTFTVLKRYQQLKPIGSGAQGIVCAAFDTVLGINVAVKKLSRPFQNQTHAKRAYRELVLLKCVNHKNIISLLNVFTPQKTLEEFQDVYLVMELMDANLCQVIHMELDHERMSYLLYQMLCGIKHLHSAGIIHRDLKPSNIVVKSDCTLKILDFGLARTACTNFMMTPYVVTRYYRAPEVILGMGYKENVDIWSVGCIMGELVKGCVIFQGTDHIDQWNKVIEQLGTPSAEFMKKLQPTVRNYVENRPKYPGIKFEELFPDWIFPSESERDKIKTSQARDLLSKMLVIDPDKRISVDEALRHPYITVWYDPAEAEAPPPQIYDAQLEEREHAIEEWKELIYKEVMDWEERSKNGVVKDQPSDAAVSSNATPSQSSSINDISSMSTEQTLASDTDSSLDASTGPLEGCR
Ribosomal protein S6 kinase alpha-3 (Homo sapiens), sequence (P51812 whole entry, the tested form may be a part): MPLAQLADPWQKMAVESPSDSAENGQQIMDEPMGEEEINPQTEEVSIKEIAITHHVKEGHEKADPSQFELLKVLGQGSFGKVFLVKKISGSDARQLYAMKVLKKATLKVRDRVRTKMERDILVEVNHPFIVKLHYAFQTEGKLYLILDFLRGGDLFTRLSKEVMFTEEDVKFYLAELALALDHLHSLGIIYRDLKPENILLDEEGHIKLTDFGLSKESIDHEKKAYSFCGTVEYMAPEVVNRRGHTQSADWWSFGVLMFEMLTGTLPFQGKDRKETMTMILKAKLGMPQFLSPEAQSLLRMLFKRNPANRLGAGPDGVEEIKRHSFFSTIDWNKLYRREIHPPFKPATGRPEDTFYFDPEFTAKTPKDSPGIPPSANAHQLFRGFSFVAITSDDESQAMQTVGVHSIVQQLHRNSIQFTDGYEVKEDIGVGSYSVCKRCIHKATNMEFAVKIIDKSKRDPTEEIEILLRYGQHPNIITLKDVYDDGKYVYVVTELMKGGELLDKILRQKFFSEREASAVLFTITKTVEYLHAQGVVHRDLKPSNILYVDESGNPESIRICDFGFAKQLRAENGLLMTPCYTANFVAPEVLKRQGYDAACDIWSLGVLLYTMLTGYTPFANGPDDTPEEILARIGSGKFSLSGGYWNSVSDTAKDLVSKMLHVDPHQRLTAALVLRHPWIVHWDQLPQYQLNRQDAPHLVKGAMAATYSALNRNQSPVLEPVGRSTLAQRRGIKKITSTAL
Ribosomal protein S6 kinase alpha-2 (Homo sapiens), sequence (Q15349 whole entry, the tested form may be a part): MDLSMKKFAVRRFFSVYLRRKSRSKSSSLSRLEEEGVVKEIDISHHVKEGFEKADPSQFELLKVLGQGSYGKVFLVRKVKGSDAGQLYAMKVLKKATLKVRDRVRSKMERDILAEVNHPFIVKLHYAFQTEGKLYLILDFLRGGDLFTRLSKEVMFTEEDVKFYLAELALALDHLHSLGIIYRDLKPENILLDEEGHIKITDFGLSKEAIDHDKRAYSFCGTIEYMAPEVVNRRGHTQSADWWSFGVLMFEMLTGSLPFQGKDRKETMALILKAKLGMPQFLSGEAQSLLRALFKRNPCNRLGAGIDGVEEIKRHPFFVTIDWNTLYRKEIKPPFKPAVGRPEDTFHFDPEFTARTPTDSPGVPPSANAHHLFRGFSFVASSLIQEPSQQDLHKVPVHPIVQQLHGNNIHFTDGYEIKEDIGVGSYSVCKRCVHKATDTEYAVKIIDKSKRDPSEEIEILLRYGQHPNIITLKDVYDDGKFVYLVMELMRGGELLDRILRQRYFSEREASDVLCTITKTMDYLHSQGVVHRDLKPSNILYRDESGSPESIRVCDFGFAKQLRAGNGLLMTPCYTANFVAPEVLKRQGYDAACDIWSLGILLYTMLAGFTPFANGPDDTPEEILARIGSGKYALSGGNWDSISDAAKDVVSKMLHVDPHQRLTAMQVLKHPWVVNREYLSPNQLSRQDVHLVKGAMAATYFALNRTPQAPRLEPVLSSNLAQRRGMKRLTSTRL
Protein kinase C eta type (Homo sapiens), sequence (P24723 whole entry): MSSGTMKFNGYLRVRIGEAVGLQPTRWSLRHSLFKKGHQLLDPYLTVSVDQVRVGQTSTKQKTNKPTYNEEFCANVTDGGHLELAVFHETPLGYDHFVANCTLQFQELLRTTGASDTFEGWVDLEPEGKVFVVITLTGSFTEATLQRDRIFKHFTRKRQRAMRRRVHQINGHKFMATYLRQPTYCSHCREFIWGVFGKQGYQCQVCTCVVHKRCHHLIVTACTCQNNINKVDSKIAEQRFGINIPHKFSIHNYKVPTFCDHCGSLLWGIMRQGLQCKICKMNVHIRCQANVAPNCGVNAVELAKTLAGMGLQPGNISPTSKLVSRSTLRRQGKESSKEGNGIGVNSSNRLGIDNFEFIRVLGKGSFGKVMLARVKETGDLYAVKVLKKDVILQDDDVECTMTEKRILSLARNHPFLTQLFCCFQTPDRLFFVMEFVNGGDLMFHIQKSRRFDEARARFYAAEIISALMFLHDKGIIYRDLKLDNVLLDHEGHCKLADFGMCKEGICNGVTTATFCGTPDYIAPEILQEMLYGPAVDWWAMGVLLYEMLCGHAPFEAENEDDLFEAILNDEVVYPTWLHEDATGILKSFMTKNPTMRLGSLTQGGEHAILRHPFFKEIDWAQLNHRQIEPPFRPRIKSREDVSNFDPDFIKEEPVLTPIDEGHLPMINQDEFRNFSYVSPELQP

For `CCOc1nc(Nc2ccc(C(=O)N3CCOCC3)cc2OC)nc2[nH]ccc12`, the Activity [1] was 90.7%, the Activity [2] was 107% and the Activity [3] was 99.2%. The Activity [4] was 80.3%, the Activity [5] was 103% and the Activity [6] was 99.8%. For the same compound, the Activity [7] was 109%, the Activity [8] was 81.8% and the Activity [9] was 95%. The Activity [10] was 89.4%, the Activity [11] was 97.8% and the Activity [12] was 71.8%. For the same compound, the Activity [13] was 65.1%, the AUCt/dose [14] was 1034 ng·h/g/mg/kg and the Activity [15] was 105%. For the same compound, the Activity [16] was 87.8%, the Activity [17] was 94.4% and the AUCt/dose [18] was 252 ng·h/g/mg/kg. The Activity [19] was 85.9%, the Activity [20] was 90.8% and the Activity [21] was 88.8%. It also gave an Activity [22] of 95.7%, an Activity [23] of 106% and an Activity [24] of 43.1%. The Activity [25] was 82%.
